{
  "source": "patent US20120065196A1",
  "about": "“AMIDE COMPOUNDS” (priority 2006, published 2012)",
  "data": [
    {"molecular_target": "T1, human DGAT1 (Homo sapiens, UniProt O75907)", "T1 construct": "(N); made in house; host or cells: Sf9 insect cells infected with recombinant baculovirus BAC-DGAT1; microsome fraction", "T1 sequence (O75907 1-488)": "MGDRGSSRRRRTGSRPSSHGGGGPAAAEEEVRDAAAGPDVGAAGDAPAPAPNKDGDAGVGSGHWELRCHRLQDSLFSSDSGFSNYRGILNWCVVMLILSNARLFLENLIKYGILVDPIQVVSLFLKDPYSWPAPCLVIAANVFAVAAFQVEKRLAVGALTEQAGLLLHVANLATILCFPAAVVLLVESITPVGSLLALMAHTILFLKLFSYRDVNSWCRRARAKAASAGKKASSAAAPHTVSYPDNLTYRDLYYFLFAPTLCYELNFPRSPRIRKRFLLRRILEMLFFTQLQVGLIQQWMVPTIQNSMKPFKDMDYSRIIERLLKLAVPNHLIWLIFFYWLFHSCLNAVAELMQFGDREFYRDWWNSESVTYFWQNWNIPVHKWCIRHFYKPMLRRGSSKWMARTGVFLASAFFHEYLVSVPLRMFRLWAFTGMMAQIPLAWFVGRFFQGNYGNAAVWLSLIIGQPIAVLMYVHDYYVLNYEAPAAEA", "assay": "Determination of DGAT inhibitory activity (triglyceride synthesis with DGAT1 high expression Sf9 microsome)", "type": "biochemical", "conditions": "25 μM dioleoylglycerol, 25 μM [14C]-Oleoyl-CoA, 32° C., 20 min, read-out: hDGAT1 IC50", "method": "Human DGAT1 gene was cloned by PCR using human adipocyte cDNA (Clontech, QUICK-Clone cDNA, human fat cell, cat #637220) as a template and, based on the DGAT1 gene information reported by Case, S. et al. (Proc. Natl. Acad. Sci. U.S.A. 95 (22), 13018-13023 (1998)), a nucleotide sequence (245-1711 of Genbank Accession No. NM_012079) encoding DGAT1 was amplified with the following PCR primer. The primer nucleotide sequence is shown below.\nThe PCR reaction was conducted using a KOD-plus kit (TOYOBO). The obtained PCR product was electrophoresed on agarose gel (1%), the DNA fragment amplified by PCR was recovered from the gel, and then digested with restriction enzymes EcoRI and SpeI. The DNA treated with the restriction enzymes was electrophoresed on agarose gel (1%), and the obtained DNA fragment was recovered and ligated with plasmid pFASTBAC1 (Invitrogen) digested with restriction enzymes EcoRI and SpeI to give expression plasmid pFB-DGAT1. The nucleotide sequence of the inserted fragment was confirmed and found to be identical with the nucleotide sequence of DGAT1 (245-1711 of Genbank Accession No. NM_012079). Furthermore, using BAC-TO-BAC Baculovirus Expression System (Invitrogen), recombinant baculovirus BAC-DGAT1 was prepared.\nSF9 cells were sown at 1×10^6 cells/ml on Sf-900II SFM medium (1 L, Invitrogen) containing 10% fetal calf serum (Trace), 50 mg/L gentamicin (Invitrogen) and 0.1% Pluronic F-68 (Invitrogen), and shaking culture was performed using a 2 L volume Erlenmeyer flask at 27° C., 100 rpm. After culturing for 24 hrs, recombinant baculovirus BAC-DGAT1 (6.7 mL) was added, and the mixture was further cultured for 3 days. The culture medium was centrifuged at 2,000 rpm for 5 min to give virus-infected cells. The infected cells were washed with a phosphate buffered saline (Invitrogen), centrifuged under the same conditions, and the cells were preserved at −80° C. The cryopreserved cells were thawed in ice, suspended in buffer A (50 mM Tris buffer (30 mL, pH 7.4) containing 20% glycerol, 0.15 M NaCl) supplemented with Complete Protease Inhibitor (Boehringer), and ruptured 3 times with a Polytron homogenizer (Kinematica) at 20,000 rpm for 30 sec. The Sf9 microsome fractions were obtained by a conventional method and cryopreserved at −80° C. as a DGAT1 high expression Sf9 microsome.\nAs a DGAT1 reaction buffer, a solution having a composition of 100 mM Tris-HCl (pH 7.5), 250 mM sucrose, 150 mM MgCl2, 0.01% bovine serum albumin (BSA) was used. Using this buffer, a given concentration of the test compound and a composition (100 μl) of 25 μM dioleoylglycerol, 25 μM [^14C]-Oleoyl-CoA, 5 μg protein/ml DGAT1 high expression Sf9 microsome, and 1% acetone were subjected to a triglyceride synthesis reaction at 32° C. for 20 min. A mixture of 300 μL of chloroform:methanol (=1:2) was added to the reaction mixture to quench the reaction. The reaction mixture was sufficiently mixed and distilled water (200 μL) was added to partition the mixture between a chloroform layer (lower layer) and an aqueous layer (upper layer). The chloroform layer (50 μL) was spotted on a thin layer chromatography silica gel plate (TLC plate, Merck) and developed with a solvent (n-hexane:diethyl ether:ethyl acetate:acetic acid=255:30:15:0.6). The developed TLC plate was dried, contacted with a BAS imaging plate (manufactured by FUJIFILM) and measured with BAS2500 (manufactured by FUJIFILM) 16 hr later to numerically show the amount of [^14C]-triglyceride (TG amount) produced during the reaction. The inhibitory rate was calculated by the following formula:\nInhibitory rate (%)=(1−(TG amount with addition of test compound−blank TG amount)/(control TG amount−blank TG amount))×100 […]", "units": {"IC50": "nM"}, "values": [
      {"smiles": "O=C(NCCNC(=O)C1CCc2c(cnn2-c2ccccc2)C1)c1cn(-c2ccccc2)nc1C(F)(F)F", "note": "(centres unmarked) [Example E179, 1-phenyl-N-(2-(1-phenyl-3-(trifluoromethyl)-1H-pyrazole-4-carboxamido)ethyl)-4,5,6,7-tetrahydro-1H-indazole-5-carboxamide]", "IC50": "10 to 100"},
      {"smiles": "O=C(NCCNC(=O)N1CCC(C(=O)c2ccccc2)C1)c1cn(-c2ccccc2)nc1C(F)(F)F", "note": "(centres unmarked) [Example E189, N-(2-(3-benzoylpyrrolidine-1-carboxamido)ethyl)-1-phenyl-3-(trifluoromethyl)-1H-pyrazole-4-carboxamide]", "IC50": "10 to 100"},
      {"smiles": "CC(C)C1CN(C(=O)NCCNC(=O)c2cn(-c3ccccc3)nc2C(F)(F)F)CC1C(=O)c1ccccc1", "note": "(centres unmarked) [Example E193, N-(2-(3-benzoyl-4-isopropylpyrrolidine-1-carboxamido)ethyl)-1-phenyl-3-(trifluouromethyl)-1H-pyrazole-4-carboxamide]", "IC50": "1000 to 10000"},
      {"smiles": "O=C(NCCNC(=O)[C@H]1CC[C@H](c2n[nH]c(=O)o2)CC1)c1cn(-c2ccccc2)nc1C(F)(F)F", "note": "[Example E197, N-(2-(trans-4-(5-oxo-4,5-dihydro-1,3,4-oxadiazol-2-yl)cyclohexanecarboxamido)ethyl)-1-phenyl-3-(trifluoromethyl)-1H-pyrazole-4-carboxamide]", "IC50": "10 to 100"},
      {"smiles": "Cn1cnc(-c2ccccc2)c1C1CCN(C(=O)NCCNC(=O)c2cn(-c3ccccc3)nc2C(F)(F)F)CC1", "note": "[Example E207, 4-(1-methyl-4-phenyl-1H-imidazol-5-yl)-N-(2-(1-phenyl-3-(trifluoromethyl)-1H-pyrazole-4-carboxamido)ethyl)piperidine-1-carboxamide]", "IC50": "100 to 1000"},
      {"smiles": "CC(C)(C)c1cnc([C@H]2CC[C@H](C(=O)NCCNC(=O)c3cn(-c4ccccc4)nc3C(F)(F)F)CC2)o1", "note": "[Example E214, N-(2-(trans-4-(5-tert-butyloxazol-2-yl)cyclohexanecarboxamido)ethyl)-1-phenyl-3-(trifluoromethyl)-1H-pyrazole-4-carboxamide]", "IC50": "10 to 100"},
      {"smiles": "O=C(NCCNC(=O)C1CCc2nc(-c3ccccc3O)sc2C1)c1cn(-c2ccccc2)nc1C(F)(F)F", "note": "(centres unmarked) [Example E221, 2-(2-hydroxyphenyl)-N-(2-(1-phenyl-3-(trifluoromethyl)-1H-pyrazole-4-carboxamido)ethyl)-4,5,6,7-tetrahydrobenzo[d]thiazole-6-carboxamide]", "IC50": "10 to 100"},
      {"smiles": "CC(C)c1nc(C2CCN(C(=O)NCCNC(=O)c3cn(-c4ccccc4)nc3C(F)(F)F)CC2)no1", "note": "[Example E225, 4-(5-isopropyl-1,2,4-oxadiazol-3-yl)-N-(2-(1-phenyl-3-(trifluoromethyl)-1H-pyrazole-4-carboxamido)ethyl)piperidine-1-carboxamide]", "IC50": "100 to 1000"},
      {"smiles": "CC(C)c1nc([C@H]2CC[C@H](C(=O)NCCNC(=O)c3cn(-c4ccccc4)nc3C(F)(F)F)CC2)no1", "note": "[Example E228, N-(2-(trans-4-(5-isopropyl-1,2,4-oxadiazol-3-yl)cyclohexanecarboxamido)ethyl)-1-phenyl-3-(trifluoromethyl)-1H-pyrazole-4-carboxamide]", "IC50": "10 to 100"},
      {"smiles": "O=C(NCCNC(=O)[C@H]1CC[C@H](c2nnc(-c3ccccc3)[nH]2)CC1)c1cn(-c2ccccc2)nc1C(F)(F)F", "note": "[Example E229, 1-Phenyl-N-(2-(trans-4-(5-phenyl-4H-1,2,4-triazol-3-yl)cyclohexanecarboxamido)ethyl)-3-(trifluoromethyl)-1H-pyrazole-4-carboxamide]", "IC50": "100 to 1000"},
      {"smiles": "CC(C)c1nnc([C@H]2CC[C@H](C(=O)NCCNC(=O)c3cn(-c4ccccc4Cl)nc3C(F)(F)F)CC2)o1", "note": "[Example E234, 1-(2-chlorophenyl)-N-(2-(trans-4-(5-isopropyl-1,3,4-oxadiazol-2-yl)cyclohexanecarboxamido)ethyl)-3-(trifluoromethyl)-1H-pyrazole-4-carboxamide]", "IC50": "100 to 1000"}
    ]}
  ]
}
